Assay results: ChEMBL document CHEMBL4732242 (Eur J Med Chem, 2021)

Experiments:
MCF7 = assay: Cytotoxicity against human MCF7 cells assessed as reduction in cell viability incubated for 48 hrs by CyQuant assay; format: functional, cell-based; details: MCF7, 48 h
[1] = biological target: Dual specificity protein kinase CLK2 (Homo sapiens, UniProt P49760); assay: Inhibition of human recombinant CLK2 using YRRAAVPPSPSLSR substrate by radiometric scintillation assay
[2] = biological target: Homeodomain-interacting protein kinase 1 (Homo sapiens, UniProt Q86Z02); assay: Inhibition of human recombinant HIPK1 using myelin substrate by radiometric scintillation assay
[3] = biological target: T1, Dual specificity tyrosine-phosphorylation-regulated kinase 2 (Homo sapiens, UniProt Q92630); assay: Inhibition of human full length recombinant DYRK2 using casein substrate by radiometric scintillation assay
T1 sequence (Q92630 whole entry): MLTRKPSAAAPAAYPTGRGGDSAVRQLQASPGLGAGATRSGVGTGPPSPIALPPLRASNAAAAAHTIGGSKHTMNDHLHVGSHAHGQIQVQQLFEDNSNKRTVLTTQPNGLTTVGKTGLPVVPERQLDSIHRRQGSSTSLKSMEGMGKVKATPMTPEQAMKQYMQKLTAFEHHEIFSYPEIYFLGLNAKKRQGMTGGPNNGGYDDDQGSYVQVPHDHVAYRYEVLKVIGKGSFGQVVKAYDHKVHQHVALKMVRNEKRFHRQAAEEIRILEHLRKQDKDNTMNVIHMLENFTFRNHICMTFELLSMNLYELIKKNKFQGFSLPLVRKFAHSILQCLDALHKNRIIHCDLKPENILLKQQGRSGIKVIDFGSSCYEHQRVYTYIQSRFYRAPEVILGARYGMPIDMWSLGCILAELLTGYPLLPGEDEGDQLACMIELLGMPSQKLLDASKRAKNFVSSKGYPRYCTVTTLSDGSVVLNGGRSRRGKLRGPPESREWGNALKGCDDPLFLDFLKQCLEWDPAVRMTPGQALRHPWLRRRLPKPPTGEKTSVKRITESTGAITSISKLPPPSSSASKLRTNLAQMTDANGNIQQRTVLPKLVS

[4] = biological target: Dual specificity protein kinase CLK4 (Homo sapiens, UniProt Q9HAZ1); assay: Inhibition of human recombinant CLK4 using YRRAAVPPSPSLS substrate by radiometric scintillation assay
[5] = biological target: Homeodomain-interacting protein kinase 2 (Homo sapiens, UniProt Q9H2X6); assay: Inhibition of human recombinant HIPK2 using myelin substrate by radiometric scintillation assay
[6] = biological target: Homeodomain-interacting protein kinase 3 (Homo sapiens, UniProt Q9H422); assay: Inhibition of human recombinant HIPK3 using myelin substrate by radiometric scintillation assay
[7] = biological target: Cyclin-dependent kinase-like 3 (Homo sapiens, UniProt Q8IVW4); assay: Inhibition of CDKL3 (unknown origin) by NanoBRET cellular target engagement assay
[8] = biological target: T1, Dual specificity tyrosine-phosphorylation-regulated kinase 2; assay: Inhibition of DYRK2 (unknown origin) by NanoBRET cellular target engagement assay
[9] = biological target: Dual specificity tyrosine-phosphorylation-regulated kinase 1B (Homo sapiens, UniProt Q9Y463); assay: Inhibition of human full length recombinant DYRK1B using RRRFRPASPLRGPP substrate by radiometric scintillation assay
[10] = biological target: Dual specificity protein kinase CLK1 (Homo sapiens, UniProt P49759); assay: Inhibition of human recombinant CLK1 using ERMRPRKRQGSVR substrate by radiometric scintillation assay
[11] = biological target: Dual specificity tyrosine-phosphorylation-regulated kinase 1A (Homo sapiens, UniProt Q13627); assay: Inhibition of human full length recombinant DYRK1A using RRRFRPASPLRGPP substrate by radiometric scintillation assay
[12] = biological target: Dual specificity protein kinase CLK3 (Homo sapiens, UniProt P49761); assay: Inhibition of human full length recombinant CLK3 using ERMRPRKRQGSVR substrate by radiometric scintillation assay
Chain of Dual specificity protein kinase CLK3 (P49761 whole entry): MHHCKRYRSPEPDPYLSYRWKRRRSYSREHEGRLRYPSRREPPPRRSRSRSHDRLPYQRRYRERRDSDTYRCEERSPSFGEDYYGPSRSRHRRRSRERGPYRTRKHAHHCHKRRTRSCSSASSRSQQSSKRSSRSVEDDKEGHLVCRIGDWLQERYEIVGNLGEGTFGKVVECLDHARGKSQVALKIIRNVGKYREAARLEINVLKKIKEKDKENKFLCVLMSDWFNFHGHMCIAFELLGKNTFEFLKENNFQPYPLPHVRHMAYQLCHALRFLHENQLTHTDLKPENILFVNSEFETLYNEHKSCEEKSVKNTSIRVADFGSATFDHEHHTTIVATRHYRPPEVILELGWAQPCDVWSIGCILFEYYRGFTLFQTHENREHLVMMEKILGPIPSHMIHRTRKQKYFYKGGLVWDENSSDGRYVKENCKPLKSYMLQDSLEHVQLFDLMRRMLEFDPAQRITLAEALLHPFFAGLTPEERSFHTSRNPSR

Chain of Dual specificity protein kinase CLK1 (P49759 whole entry): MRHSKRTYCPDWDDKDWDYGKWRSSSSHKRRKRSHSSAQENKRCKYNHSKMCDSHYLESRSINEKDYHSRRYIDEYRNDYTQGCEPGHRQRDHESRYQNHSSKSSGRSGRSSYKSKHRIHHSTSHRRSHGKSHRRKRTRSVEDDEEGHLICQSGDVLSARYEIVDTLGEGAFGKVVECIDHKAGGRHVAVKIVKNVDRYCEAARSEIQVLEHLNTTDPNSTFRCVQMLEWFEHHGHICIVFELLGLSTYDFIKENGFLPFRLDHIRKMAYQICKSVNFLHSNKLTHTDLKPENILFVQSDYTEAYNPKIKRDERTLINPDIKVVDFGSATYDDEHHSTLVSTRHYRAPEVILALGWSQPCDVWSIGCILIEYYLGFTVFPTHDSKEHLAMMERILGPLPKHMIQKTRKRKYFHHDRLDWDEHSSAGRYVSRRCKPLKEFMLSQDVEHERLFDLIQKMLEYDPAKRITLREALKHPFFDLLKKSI
Chain of Dual specificity protein kinase CLK2 (P49760 whole entry): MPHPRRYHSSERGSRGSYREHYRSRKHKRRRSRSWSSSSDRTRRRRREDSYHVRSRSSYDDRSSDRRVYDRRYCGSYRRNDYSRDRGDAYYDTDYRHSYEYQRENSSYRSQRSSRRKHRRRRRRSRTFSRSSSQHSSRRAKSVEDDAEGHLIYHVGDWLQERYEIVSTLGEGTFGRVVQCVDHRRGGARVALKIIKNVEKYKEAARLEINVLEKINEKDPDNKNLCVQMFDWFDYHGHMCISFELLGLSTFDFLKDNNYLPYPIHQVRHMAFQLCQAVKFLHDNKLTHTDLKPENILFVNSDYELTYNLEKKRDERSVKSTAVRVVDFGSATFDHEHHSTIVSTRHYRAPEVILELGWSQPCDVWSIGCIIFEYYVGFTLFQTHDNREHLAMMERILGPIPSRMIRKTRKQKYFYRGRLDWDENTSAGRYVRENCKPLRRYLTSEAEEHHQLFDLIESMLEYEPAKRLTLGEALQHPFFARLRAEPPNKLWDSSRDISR
Chain of Homeodomain-interacting protein kinase 2 (Q9H2X6 whole entry): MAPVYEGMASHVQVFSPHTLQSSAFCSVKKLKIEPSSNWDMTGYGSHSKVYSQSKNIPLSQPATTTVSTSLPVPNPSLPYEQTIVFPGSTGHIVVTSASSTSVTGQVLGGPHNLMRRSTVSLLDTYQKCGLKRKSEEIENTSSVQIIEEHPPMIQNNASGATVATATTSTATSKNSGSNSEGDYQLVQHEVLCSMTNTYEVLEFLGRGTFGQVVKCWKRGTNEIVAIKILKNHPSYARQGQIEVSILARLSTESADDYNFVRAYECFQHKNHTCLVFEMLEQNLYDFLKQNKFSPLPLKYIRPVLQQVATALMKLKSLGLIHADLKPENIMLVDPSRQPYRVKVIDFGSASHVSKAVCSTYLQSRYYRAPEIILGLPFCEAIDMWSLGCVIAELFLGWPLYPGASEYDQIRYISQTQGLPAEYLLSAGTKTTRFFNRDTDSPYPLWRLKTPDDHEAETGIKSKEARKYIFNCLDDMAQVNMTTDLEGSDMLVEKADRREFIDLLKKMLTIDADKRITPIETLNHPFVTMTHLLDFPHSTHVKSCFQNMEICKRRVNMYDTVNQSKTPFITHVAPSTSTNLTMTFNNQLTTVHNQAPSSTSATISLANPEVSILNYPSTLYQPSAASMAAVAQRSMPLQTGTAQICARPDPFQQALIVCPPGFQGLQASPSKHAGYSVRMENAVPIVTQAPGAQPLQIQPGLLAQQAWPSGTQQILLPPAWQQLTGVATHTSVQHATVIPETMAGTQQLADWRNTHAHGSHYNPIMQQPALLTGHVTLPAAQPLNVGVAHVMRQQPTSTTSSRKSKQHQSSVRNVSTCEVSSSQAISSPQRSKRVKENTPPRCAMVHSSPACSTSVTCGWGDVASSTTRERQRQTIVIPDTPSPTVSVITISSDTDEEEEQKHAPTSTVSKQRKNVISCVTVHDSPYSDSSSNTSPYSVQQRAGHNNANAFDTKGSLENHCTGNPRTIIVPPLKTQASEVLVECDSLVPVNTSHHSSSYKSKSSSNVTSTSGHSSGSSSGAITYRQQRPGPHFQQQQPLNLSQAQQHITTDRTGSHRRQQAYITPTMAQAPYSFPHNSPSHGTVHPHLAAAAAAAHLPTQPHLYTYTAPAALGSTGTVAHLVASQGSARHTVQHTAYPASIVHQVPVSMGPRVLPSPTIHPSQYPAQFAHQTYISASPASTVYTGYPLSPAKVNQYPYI
Chain of Dual specificity tyrosine-phosphorylation-regulated kinase 1B (Q9Y463 whole entry): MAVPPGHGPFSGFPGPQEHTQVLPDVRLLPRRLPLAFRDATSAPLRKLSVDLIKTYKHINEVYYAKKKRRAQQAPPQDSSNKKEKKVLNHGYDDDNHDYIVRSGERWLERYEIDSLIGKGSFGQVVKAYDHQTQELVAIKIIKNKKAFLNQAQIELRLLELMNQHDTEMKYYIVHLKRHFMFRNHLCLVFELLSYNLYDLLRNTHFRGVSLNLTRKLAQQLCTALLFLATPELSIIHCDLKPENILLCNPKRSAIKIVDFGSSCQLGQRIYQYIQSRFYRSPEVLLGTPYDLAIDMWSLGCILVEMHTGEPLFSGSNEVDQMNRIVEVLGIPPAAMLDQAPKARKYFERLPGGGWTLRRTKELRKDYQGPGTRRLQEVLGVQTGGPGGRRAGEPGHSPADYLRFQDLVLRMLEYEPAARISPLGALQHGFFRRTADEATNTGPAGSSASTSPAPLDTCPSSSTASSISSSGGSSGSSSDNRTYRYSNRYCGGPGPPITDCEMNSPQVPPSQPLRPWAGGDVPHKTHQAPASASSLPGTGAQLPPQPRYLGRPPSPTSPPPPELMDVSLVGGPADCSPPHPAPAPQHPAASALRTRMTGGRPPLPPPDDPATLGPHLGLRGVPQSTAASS
Chain of Homeodomain-interacting protein kinase 1 (Q86Z02 whole entry): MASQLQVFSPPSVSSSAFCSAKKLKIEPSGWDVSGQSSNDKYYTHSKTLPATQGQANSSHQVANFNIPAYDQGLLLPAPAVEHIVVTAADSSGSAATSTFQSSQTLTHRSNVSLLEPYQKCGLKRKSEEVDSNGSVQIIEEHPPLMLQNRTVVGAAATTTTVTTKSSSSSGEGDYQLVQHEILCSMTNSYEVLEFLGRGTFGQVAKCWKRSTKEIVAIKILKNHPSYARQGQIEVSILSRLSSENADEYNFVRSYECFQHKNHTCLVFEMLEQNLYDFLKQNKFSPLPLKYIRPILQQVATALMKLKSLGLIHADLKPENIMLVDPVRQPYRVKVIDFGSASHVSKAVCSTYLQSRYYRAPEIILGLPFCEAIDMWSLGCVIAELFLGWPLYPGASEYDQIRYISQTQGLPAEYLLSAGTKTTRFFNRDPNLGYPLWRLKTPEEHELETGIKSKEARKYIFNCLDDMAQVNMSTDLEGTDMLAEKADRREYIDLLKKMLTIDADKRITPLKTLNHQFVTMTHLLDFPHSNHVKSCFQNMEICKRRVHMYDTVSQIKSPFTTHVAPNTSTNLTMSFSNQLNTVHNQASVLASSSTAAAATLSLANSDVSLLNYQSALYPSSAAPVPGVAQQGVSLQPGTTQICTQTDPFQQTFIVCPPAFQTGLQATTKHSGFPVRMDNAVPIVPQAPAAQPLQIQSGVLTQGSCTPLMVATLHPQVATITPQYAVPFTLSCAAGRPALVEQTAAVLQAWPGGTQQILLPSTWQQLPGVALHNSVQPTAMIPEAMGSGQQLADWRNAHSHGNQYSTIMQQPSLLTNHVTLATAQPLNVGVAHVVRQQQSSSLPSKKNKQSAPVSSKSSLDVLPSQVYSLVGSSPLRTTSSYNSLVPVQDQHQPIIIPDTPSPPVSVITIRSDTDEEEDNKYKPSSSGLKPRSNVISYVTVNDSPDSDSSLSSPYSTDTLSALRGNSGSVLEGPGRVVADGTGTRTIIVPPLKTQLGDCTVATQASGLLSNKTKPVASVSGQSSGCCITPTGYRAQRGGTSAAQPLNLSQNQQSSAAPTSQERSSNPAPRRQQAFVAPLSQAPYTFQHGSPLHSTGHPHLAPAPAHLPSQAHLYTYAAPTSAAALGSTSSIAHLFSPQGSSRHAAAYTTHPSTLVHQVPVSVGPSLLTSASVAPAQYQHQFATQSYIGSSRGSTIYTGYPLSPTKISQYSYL
Chain of Dual specificity protein kinase CLK4 (Q9HAZ1 whole entry): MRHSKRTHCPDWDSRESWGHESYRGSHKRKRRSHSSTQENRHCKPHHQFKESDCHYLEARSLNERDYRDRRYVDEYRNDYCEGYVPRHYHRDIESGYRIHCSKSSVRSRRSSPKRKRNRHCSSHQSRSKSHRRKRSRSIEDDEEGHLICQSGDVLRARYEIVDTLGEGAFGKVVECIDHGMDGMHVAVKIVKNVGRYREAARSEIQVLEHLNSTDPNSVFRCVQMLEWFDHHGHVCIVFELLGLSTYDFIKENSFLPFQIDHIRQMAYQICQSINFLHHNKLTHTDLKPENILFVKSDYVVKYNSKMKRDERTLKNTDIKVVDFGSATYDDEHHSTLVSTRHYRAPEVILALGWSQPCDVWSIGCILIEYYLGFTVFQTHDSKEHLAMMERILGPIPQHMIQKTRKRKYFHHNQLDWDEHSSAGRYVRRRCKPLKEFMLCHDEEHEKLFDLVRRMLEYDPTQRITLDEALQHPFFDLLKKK

SMILES | IC50 (MCF7) | IC50 [1] | IC50 [2] | IC50 [3] | IC50 [4] | IC50 [5] | IC50 [6] | IC50 [7] | IC50 [8] | IC50 [9] | IC50 [10] | IC50 [11] | IC50 [12]
Cn1cc(-c2ccc3occ(-c4cccc(-c5ccncc5)c4)c3n2)cn1 | 4600 nM | – | – | – | – | – | – | – | – | – | – | – | –
c1ccc2cc(-c3coc4ccc(-c5cn[nH]c5)nc34)ccc2c1 | – | 25 nM | 16 nM | 1430 nM | 31 nM | 5 nM | 38 nM | – | – | – | – | – | –
Cn1cc(-c2coc3ccc(-c4cn[nH]c4)nc23)cn1 | – | 176 nM | 235 nM | 1210 nM | 45 nM | 28 nM | – | – | – | – | – | – | –
O=C(Nc1c[nH]nc1-c1nc2cc(CN3CCOCC3)ccc2[nH]1)NC1CC1 [AT-9283] | – | – | – | – | – | – | – | 1100 nM | 570 nM | – | – | – | –
Cn1cc(-c2ccc3occ(-c4ccc(C(C)(C)C)cc4)c3n2)cn1 | – | > 3000 nM | > 3000 nM | > 3000 nM | > 3000 nM | > 3000 nM | > 3000 nM | – | – | > 3000 nM | > 3000 nM | > 3000 nM | > 3000 nM
c1n[nH]cc1-c1ccc2occ(-c3ccc(C4CCCCC4)cc3)c2n1 | – | > 3000 nM | > 3000 nM | > 3000 nM | 776 nM | 654 nM | > 3000 nM | – | – | > 3000 nM | 2110 nM | > 3000 nM | > 3000 nM
c1ccc(Cc2ccc(-c3coc4ccc(-c5cn[nH]c5)nc34)cc2)cc1 | – | 1840 nM | 921 nM | > 3000 nM | 355 nM | 484 nM | > 3000 nM | – | – | > 3000 nM | 450 nM | > 3000 nM | > 3000 nM
CC(C)(C)c1ccc(-c2coc3ccc(-c4nn[nH]n4)nc23)cc1 | – | > 3000 nM | 545 nM | > 3000 nM | > 3000 nM | 357 nM | 720 nM | – | – | > 3000 nM | > 3000 nM | > 3000 nM | > 3000 nM
Cn1cc(-c2ccc3occ(-c4ccc(C(C)(C)C)cc4)c3n2)nn1 | – | > 3000 nM | > 3000 nM | > 3000 nM | > 3000 nM | > 3000 nM | > 3000 nM | – | – | > 3000 nM | > 3000 nM | > 3000 nM | > 3000 nM
Cn1cc(-c2cccc(-c3coc4ccc(-c5cnn(C)c5)nc34)c2)cn1 | > 100000 nM | 16 nM | 209 nM | 771 nM | 17 nM | 70 nM | 125 nM | – | – | 2420 nM | 18 nM | 147 nM | > 3000 nM
Cn1cc(-c2ccc3occ(-c4cccc(-c5cc[nH]n5)c4)c3n2)cn1 | – | 16 nM | 125 nM | > 3000 nM | 15 nM | 30 nM | 128 nM | – | – | 1890 nM | 14 nM | 116 nM | 1640 nM
CC(C)(C)c1ccc(-c2coc3ccc(-c4cnsc4)nc23)cc1 | – | > 3000 nM | > 3000 nM | > 3000 nM | > 3000 nM | > 3000 nM | > 3000 nM | – | – | > 3000 nM | > 3000 nM | > 3000 nM | > 3000 nM
c1ccc(-c2coc3ccc(-c4cn[nH]c4)nc23)cc1 | – | 72 nM | 62 nM | 1150 nM | 41 nM | 42 nM | 128 nM | – | – | – | – | – | –
